# Values quoted from earlier work in the CATMoS acute toxicity set (Mansouri et al. 2021).
# Where “and” joins values, the source holds several entries; their conditions need not be identical. Equal entries are not always repeated.
# Assay: rat acute oral toxicity
# Conditions: in vivo
row,SMILES,LD50
1,CCCCCCCCc1ccc(-c2ccc(C#N)cc2)cc1,2200 mg/kg
2,CCOC(C1=NCC(C)(C)CN1)c1cccc(F)c1 (configuration not stated),750 mg/kg
3,CCN(CCCOS(C)(=O)=O)CCCOS(C)(=O)=O,375 mg/kg
4,C[N+](C)([O-])c1ccc(N=Nc2ccccc2)cc1,2200 mg/kg
5,CC(Oc1cccc2ccccc12)C(N)N=O (configuration not stated),108 mg/kg
6,CCN(CC)C(=O)c1ccccc1O,580 mg/kg
7,CC(C)(O)Cc1ccccc1,1280 mg/kg
8,CC(=O)OC(C)(C)C1CC=C(C)CC1 (configuration not stated),5080 mg/kg
9,C=CC(=O)Nc1ccc(O)cc1,930 mg/kg
10,C[C@H](O)[C@H](O)[C@H]1CNc2[nH]c(N)nc(=O)c2N1,1000 mg/kg
11,O=C(CCN1CCN2c3ccccc3CCC2C1)Cc1ccc(F)cc1 (configuration not stated),800 mg/kg
12,Cc1onc(-c2c(F)cccc2Cl)c1C(=O)N[C@@H]1C(=O)N2[C@@H]1SC(C)(C)[C@@H]2C(=O)O,11000 mg/kg
13,O=S(=O)(O)Oc1ccc(C(c2ccc(OS(=O)(=O)O)cc2)c2ccccn2)cc1,11300 mg/kg
14,N#CC(F)(F)C(F)(F)C(F)(F)C#N,2600 mg/kg
15,Nc1ccc([N+](=O)[O-])cc1Cl,6430 mg/kg
16,C1CSCCO1,2830 mg/kg
17,CCOP(=O)(OCC)SC(P(=O)(OCC)OCC)(P(=O)(OCC)OCC)P(=O)(OCC)OCC,28 mg/kg
18,SCCS,120 mg/kg
19,C=CCC(C(=O)NC(N)=O)C(C)C (configuration not stated),1050 mg/kg
20,N#CC(Cl)=C(Cl)Cl,62.5 mg/kg
21,CC(C)=CC1C(C(=O)O)C1(C)C (configuration not stated),2500 mg/kg
22,O=C1C(=NNc2ccccc2S(=O)(=O)O)C(S(=O)(=O)O)=Cc2cc(S(=O)(=O)O)cc(Nc3nc(Cl)nc(Nc4ccccc4)n3)c21,6730 mg/kg
23,CO[SiH](OC)OC,9330 mg/kg

row,SMILES,LD50
1,ClC1=C(Cl)C2(Cl)C3CCCCC3C1(Cl)C2(Cl)Cl (configuration not stated),100 mg/kg
2,O=S(=O)(O)CCS,4440 mg/kg
3,Clc1cccc2c1Oc1c(Cl)c(Cl)c(Cl)c(Cl)c1O2,0.206 mg/kg
4,CC(CCl)N(C)C (configuration not stated),166 mg/kg
5,O=[N+]([O-])c1c(Br)ccc2[nH]c(C(F)(F)F)nc12,13.5 mg/kg
6,O=S(=O)(O)c1cccc2c(S(=O)(=O)O)cccc12,30000 mg/kg
7,C=CC(=C)CCCC(C)(C)OC(C)=O,6300 mg/kg
8,CN(CCn1cnc2c1c(=O)n(C)c(=O)n2C)c1ccccc1,2880 mg/kg
9,O=C(OCCN1CCCCC1)C(O)(c1ccccc1)c1ccccc1,1210 mg/kg
10,CCOC(=O)CC(=O)OC(Br)C(Cl)(Cl)Cl (configuration not stated),2600 mg/kg
11,COC(=O)C1=C(C)NC(C)=C(C(=O)OCCN(C)Cc2ccccc2)C1c1cccc([N+](=O)[O-])c1 (configuration not stated),184 mg/kg and 320 mg/kg
12,C[Si]1(C)N[Si](C)(C)N[Si](C)(C)N1,500 mg/kg
13,CNC(=O)ON=C1CCCC1(C)[N+](=O)[O-] (configuration not stated),4 mg/kg
14,CCOP(=O)(OCC)SC=C(Cl)Cl,1.75 mg/kg
15,O=c1occo1,300 mg/kg
16,CC1(C)C2CCC(C=O)C1C2 (configuration not stated),2300 mg/kg
17,CC(C(=O)O)c1ccc(-c2ccccc2)c(F)c1 (configuration not stated),117 mg/kg
18,CCCCCCOC(=O)Oc1ccccc1C(=O)O,3450 mg/kg
19,COP(=O)(OC)Oc1ccc(SC)cc1,7 mg/kg
20,Nc1c(I)cc(I)c(C(=O)N(CCC(=O)O)c2ccccc2)c1I,2800 mg/kg
21,CC(=O)Nc1ccc2c(c1)OCO2,1000 mg/kg
22,CN(N=Nc1ccccc1)N=Nc1ccccc1,212 mg/kg
23,C=C1C[C@@H]1C[C@H](N)C(=O)O,98 mg/kg

row,SMILES,LD50
1,O=c1c(Cl)c(Cl)cnn1-c1ccccc1,2520 mg/kg
2,Clc1ccc(N2CCN(C/C=C/c3ccccc3)CC2)nn1,483 mg/kg
3,Fc1c(Cl)c(Br)c2[nH]c(C(F)(F)F)nc2c1Cl,6.26 mg/kg
4,O=[N+]([O-])c1cc(C(F)(F)F)cc([N+](=O)[O-])c1Cl,930 mg/kg
5,CCNc1nc(NC(C)C(C)C)nc(SC)n1 (configuration not stated),3000 mg/kg
6,CCCCCCCCCCOS(=O)(=O)O,1950 mg/kg
7,CCCCC(CC)(COC(N)=O)COC(N)=O,662 mg/kg
8,CC(=O)c1ccc(O)cc1O,2830 mg/kg
9,OCCN1CCCCC1,1500 mg/kg
10,O=NN(CCCl)C(=O)NCCS(=O)(=O)NCc1ccccc1,250 mg/kg
11,O=C(OCC(Cl)(Cl)Cl)c1ccco1,600 mg/kg
12,CCC(C)C(CN(C)C)c1ccc(Cl)cc1Cl (configuration not stated),567 mg/kg
13,Cc1cc(C)c(Cc2cc(C)c(C)cc2C)cc1C,4500 mg/kg
14,NCc1cc(O)no1,45 mg/kg
15,Cc1cccc(CN2CCN(C(c3ccccc3)c3ccc(Cl)cc3)CC2)c1 (configuration not stated),1750 mg/kg
16,CCC/C=C/CO,3500 mg/kg
17,C[n+]1ccc(-c2ccccc2)cc1,35 mg/kg
18,C=CC(=O)N(CC)CC,1420 mg/kg
19,Cc1c(C(C)C)c(=O)n(-c2ccccc2)n1C,860 mg/kg
20,Cc1ccc2c(c1)CC(=O)c1cc(C(C)C(=O)OCCOCCO)ccc1O2 (configuration not stated),219 mg/kg
21,O=C(Oc1ccc(Cl)cc1Cl)N1CCCC1,2200 mg/kg
22,O=C(O)C(F)(F)C(F)(F)C(F)(F)C(F)(F)C(F)(F)C(F)F,1440 mg/kg
23,Cc1cc(C)cc(Cc2ccccc2)c1,2330 mg/kg

row,SMILES,LD50
1,CC(O)C(Cl)(Cl)Cl (configuration not stated),1000 mg/kg
2,CC(C)(C)c1nnc(NS(=O)(=O)c2ccccc2)s1,500 mg/kg
3,Nc1cc(Cl)c(N)c(Cl)c1,700 mg/kg
4,CCCOC(=O)C1COc2ccccc2O1 (configuration not stated),7450 mg/kg
5,NNc1ccc(N(CCO)CCO)nn1,1800 mg/kg
6,CCOC(=O)C1(c2ccccc2)CCN(CCC(C#N)(c2ccccc2)c2ccccc2)CC1,221 mg/kg
7,O=S(=O)(CCCl)COCS(=O)(=O)CCCl,168 mg/kg
8,Cn1c(=N)oc2ccc(Cl)cc21,1000 mg/kg
9,CCCCCCCCCCCCCCOC(=O)Cc1ccc(N(CCCl)CCCl)cc1,46 mg/kg
10,CCNCc1cc([N+](=O)[O-])ccc1O,1010 mg/kg
11,CCCCNCCCCCCN,536 mg/kg
12,O=[N+]([O-])CCCO,77 mg/kg
13,CCCCC(CC)Cc1ccccc1O (configuration not stated),2460 mg/kg
14,C[C@@H]1C[C@H]2[C@@H]3CCC4=CC(=O)C=C[C@]4(C)[C@@]3(F)[C@@H](O)C[C@]2(C)[C@@]1(O)C(=O)COC(=O)c1ccncc1,3560 mg/kg
15,CCN(CC)CCOc1nn(-c2cccc(C(F)(F)F)c2)c2ncccc12,1200 mg/kg
16,Nc1ccc(S(=O)(=O)c2ccc(N)cc2)cc1,1000 mg/kg
17,CNC(=C[N+](=O)[O-])NCCSCc1csc(CN(C)C)n1,1650 mg/kg
18,C=CCc1ccc2c(c1)OCO2,1950 mg/kg
19,CCC(=O)O[C@@H]1CC(=O)O[C@H](C)C/C=C/C=C/[C@H](O)[C@H](C)C[C@H](CC=O)[C@H](O[C@@H]2O[C@H](C)[C@@H](O[C@H]3C[C@@](C)(O)[C@@H](OC(=O)CC)[C@H](C)O3)[C@H](N(C)C)[C@H]2O)[C@H]1OC,9600 mg/kg
20,CC(=O)CCCOC(C)=O,6080 mg/kg
21,ClC1=C(Cl)[C@]2(Cl)[C@H]3[C@H]([C@@H]4O[C@]4(Cl)[C@@H]3Cl)[C@@]1(Cl)C2(Cl)Cl (racemic),457 mg/kg
22,CCOP(=O)(O)CCCl,1250 mg/kg
23,Nc1ccc(CCNCC(O)c2ccccc2)cc1 (configuration not stated),200 mg/kg

row,SMILES,LD50
1,CCOC(C1=NCC(OC)CN1)c1ccccc1 (configuration not stated),875 mg/kg
2,Nc1nc2cc(F)ccc2o1,1000 mg/kg
3,C[N+]1(CCCl)CCCO1 (configuration not stated),3 mg/kg
4,N=C(S)NN=Nc1ccc(Cl)c(Cl)c1,1 mg/kg
5,CCOC(=O)Nc1ccc(NCc2ccc(F)cc2)nc1N,1660 mg/kg
6,CC(C(=O)O)c1cccc(Oc2ccccc2)c1 (configuration not stated),800 mg/kg
7,CCC1COC(Cn2cncn2)(c2ccc(Cl)cc2Cl)O1 (configuration not stated),1340 mg/kg
8,CCN(CCO)c1ccccc1,1640 mg/kg
9,CCC(=O)OCC(=O)[C@@]1(OC(=O)CC)[C@H](C)C[C@H]2[C@H]3[C@H]([C@@H](O)C[C@@]21C)[C@@]1(C)C=CC(=O)C=C1C[C@H]3Cl,3590 mg/kg
10,Cc1nc(C)c(C)nc1C,1910 mg/kg
11,CCCc1c(OCCCCc2nnn[nH]2)ccc(C(C)=O)c1O,650 mg/kg
12,CC(C)(C)NCC(O)COc1ccccc1C#N (configuration not stated),639 mg/kg
13,OC[C@H]1O[C@@H](O[C@@H]2[C@@H](CO)O[C@](O)(CO)[C@H]2O)[C@H](O)[C@@H](O)[C@H]1O,18200 mg/kg
14,Nc1ccc([N+](=O)[O-])c(Cl)n1,1780 mg/kg
15,CC(C)CCON=O,505 mg/kg
16,CCCCC(CC)C(=O)OCCOCCOCCOC(=O)C(CC)CCCC (configuration not stated),31000 mg/kg
17,Clc1ccc(Cn2c(CN3CCCC3)nc3ccccc32)cc1,1950 mg/kg
18,COC(=O)c1c(Cl)c(Cl)c(C(=O)SC)c(Cl)c1Cl,3300 mg/kg
19,CC(=O)Nc1cc(Cl)c([N+](=O)[O-])cc1Cl,2830 mg/kg
20,COP(=S)(OC)SC1OCCOC1SP(=S)(OC)OC (configuration not stated),350 mg/kg
21,C=CCOCC(CC)(CO)CO,4930 mg/kg
22,FC(F)(F)c1nc2ccc(Cl)cc2[nH]1,6.82 mg/kg
23,CCOC(=O)C(Cl)Cc1cc(-n2nc(C)n(C(F)F)c2=O)c(F)cc1Cl (configuration not stated),5140 mg/kg

row,SMILES,LD50
1,OCCOCCN1CCN(CCOC(c2ccccc2)c2ccc(Cl)cc2)CC1 (configuration not stated),800 mg/kg
2,FC(F)C(F)(F)OCC(Cn1cncn1)c1ccc(Cl)cc1Cl (configuration not stated),1030 mg/kg
3,O=C(OCCOC(=O)C(Cl)(Cl)Cl)C(Cl)(Cl)Cl,7000 mg/kg
4,CC(C)c1cc(Oc2c(I)cc(CC(=O)O)cc2I)ccc1O,5.4 mg/kg
5,CC(=O)CC(=O)OC(C)C,16200 mg/kg
6,CCC(C)C1(CC)C(O)=NC(=O)N=C1O (configuration not stated),78 mg/kg
7,CCCCc1ccc(O)c(C(=O)Nc2cccc(C(F)(F)F)c2)c1,2500 mg/kg
8,CCCCC(C=CC(C)=O)CC (configuration not stated),8120 mg/kg
9,CCCSC(=O)Oc1c(C(C)CC)cc([N+](=O)[O-])cc1[N+](=O)[O-] (configuration not stated),584 mg/kg
10,CC(C)(C)NCCCCN,810 mg/kg
11,Cc1ccc(/N=C/NSN(Cc2ccccc2)Cc2ccccc2)c(C)c1,1050 mg/kg
12,CN1C(=O)CN2CCc3ccccc3C2c2cc(Cl)ccc21 (configuration not stated),1730 mg/kg
13,COC(=O)c1ccc(C(=O)OC)cc1,4390 mg/kg
14,O=C(Nc1ccc(Nc2ccc(NC(=O)c3ccccc3)c3c2C(=O)c2ccccc2C3=O)c2c1C(=O)c1ccccc1C2=O)c1ccccc1,19300 mg/kg
15,Cc1cc(Cl)cc2sc(-c3sc4cc(Cl)cc(C)c4c3OS(=O)(=O)O)c(OS(=O)(=O)O)c12,4360 mg/kg
16,O=C1C(I)=CC(=C(c2cc(I)c(O)c(I)c2)c2ccccc2C(=O)O)C=C1I,2800 mg/kg
17,COc1cc(C(=O)NC2CCCNC2)cc(OC)c1OC (configuration not stated),2100 mg/kg
18,CCC(C)(O)c1ccccc1 (configuration not stated),1400 mg/kg
19,C[C@H]1c2cccc(O)c2C(=O)C2=C(O)[C@]3(O)C(=O)C(C(N)=O)=C(O)[C@@H](N(C)C)[C@@H]3[C@@H](O)[C@@H]21,1700 mg/kg
20,Nc1ccc2c(c1)C1CCCCC1N2 (configuration not stated),275 mg/kg
21,CN(C)CCCOC1(Cc2ccccc2)CCCCCC1,414 mg/kg
22,CC(C)NCC(O)COc1ccccc1C1CCCCC1 (configuration not stated),1850 mg/kg
